Measurements as given in US20250059174A1, “Pharmaceutical Compounds and Compositions as C-Kit Kinase Inhibitors” (Enanta Pharmaceuticals, Inc., priority 2023, published 2025).

Each molecule was assayed against Recombinant human c-KIT kinase (Homo sapiens (Human), UniProt P10721) (assay: c-KIT kinase chemiluminescence assay (ADP-Glo)). Conditions: ATP 50 μM.
Format: biochemical
Outline: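 Recombinant human c-KIT preincubated 30 min at RT in 40 mM Tris pH 7.5, 20 mM MgCl2, 0.1 mg/mL BSA, 50 μM DTT, then reacted 2 h at RT with ATP and polyEY substrate. ADP-Glo luminescence readout; activity normalized to high/low controls, IC50 and Hill coefficient from inhibitor-versus-normalized-response fit.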

Recombinant human c-KIT kinase, sequence (P10721 26-976): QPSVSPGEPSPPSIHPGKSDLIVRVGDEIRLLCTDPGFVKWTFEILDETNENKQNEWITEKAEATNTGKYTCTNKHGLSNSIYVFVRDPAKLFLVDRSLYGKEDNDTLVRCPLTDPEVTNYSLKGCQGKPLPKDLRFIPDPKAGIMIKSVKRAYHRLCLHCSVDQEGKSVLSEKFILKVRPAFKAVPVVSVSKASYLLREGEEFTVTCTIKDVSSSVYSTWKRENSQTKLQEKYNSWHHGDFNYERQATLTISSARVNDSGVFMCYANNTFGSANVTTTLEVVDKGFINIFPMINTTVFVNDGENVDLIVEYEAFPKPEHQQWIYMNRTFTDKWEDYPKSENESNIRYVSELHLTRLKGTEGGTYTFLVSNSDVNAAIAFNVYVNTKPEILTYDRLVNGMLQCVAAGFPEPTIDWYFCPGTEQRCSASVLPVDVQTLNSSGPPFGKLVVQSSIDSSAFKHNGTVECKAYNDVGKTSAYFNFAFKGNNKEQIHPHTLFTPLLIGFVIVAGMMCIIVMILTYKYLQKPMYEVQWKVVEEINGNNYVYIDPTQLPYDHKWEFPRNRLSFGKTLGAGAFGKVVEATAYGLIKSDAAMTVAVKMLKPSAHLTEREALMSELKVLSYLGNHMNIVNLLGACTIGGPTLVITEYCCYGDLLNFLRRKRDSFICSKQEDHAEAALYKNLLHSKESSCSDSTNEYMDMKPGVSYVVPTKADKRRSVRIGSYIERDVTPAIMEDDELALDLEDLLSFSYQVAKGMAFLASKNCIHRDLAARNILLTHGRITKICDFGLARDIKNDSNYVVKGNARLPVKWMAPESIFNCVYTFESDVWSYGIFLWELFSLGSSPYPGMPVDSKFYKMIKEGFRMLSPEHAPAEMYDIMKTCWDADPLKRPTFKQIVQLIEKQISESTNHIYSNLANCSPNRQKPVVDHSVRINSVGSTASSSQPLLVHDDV

Row | SMILES | IC50 [nM]
1 | Cc1ccc(-c2noc([C@H]3C[C@@H]3F)n2)cc1NC(=O)c1cnc2n1C(Cc1ccccc1)c1ccccc1-2 (stereo partly drawn) [Example 104] | > 1000
2 | Cc1ncc(-c2noc([C@H]3C[C@@H](OC(F)(F)F)C3)n2)cc1NC(=O)c1cnn2ccc(N3CC4(COC4)C3)cc12 [Example 270] | 100 to 1000
3 | Cc1ncc(-c2noc([C@@H]3CN(CC(F)(F)F)[C@H]3C)n2)cc1NC(=O)c1cnn2ccc(N3CC4(C3)CC(O)(C(F)F)C4)cc12 [Example 281-12] | < 100
4 | Cc1ccc(-c2noc([C@H]3C[C@@H]3F)n2)cc1NC(=O)c1cnn2ccc(N3CC[C@H](N)C3)cc12 [Example 198] | < 100
5 | Cc1ccc(-c2noc([C@H]3C[C@@H](OC(F)(F)F)C3)n2)cc1NC(=O)c1cnn2cc(-c3cn(C(F)F)nn3)ccc12 [Example 263] | < 100
6 | Cc1ccc(-c2noc([C@H]3C[C@@H]3F)n2)cc1NC(=O)c1cnn2ccc(N3CC4(C3)CC(F)(F)C4)cc12 [Example 213] | < 100
7 | Cc1ccc(-c2noc([C@H]3C[C@@H]3F)n2)cc1NC(=O)c1cnn2ccc(N3CCOCC3)cc12 [Example 241] | < 100
8 | Cc1ccc(-c2noc([C@H]3C[C@@H]3F)n2)cc1NC(=O)c1cnc(N2CC(C(=O)NC3CC3)C2)s1 [Example 98-5] | > 1000
9 | Cc1ccc(-c2noc([C@H]3C[C@@H]3F)n2)cc1NC(=O)c1cnn2ccc(N3CC4(CN(C)C4)C3)cc12 [Example 202] | 100 to 1000
10 | Cc1ccc(-c2noc([C@H]3C[C@@H](OC(F)F)C3)n2)cc1NC(=O)c1cnn2cc(-c3cn(C(F)F)nn3)ccc12 [Example 275] | < 100
11 | Cc1ccc(-c2noc(C34CC(F)(C3)C4)n2)cc1NC(=O)c1cnn2ccc(N3CC4(COC4)C3)cc12 [Example 249] | < 100
12 | Cc1ccc(-c2noc([C@H]3C[C@@H]3F)n2)cc1NC(=O)c1cnn2ccc(-c3ccc(C#N)nc3C)cc12 [Example 171-16] | < 100
13 | Cc1ccc(-c2noc([C@H]3C[C@@H]3F)n2)cc1NC(=O)c1cnn2ccc(N3C[C@H]4C[C@@H]3CO4)cc12 [Example 199] | < 100

More lines, now with the values ahead:

Row | IC50 [nM] | SMILES
14 | < 100 | Cc1ccc(-c2ccc(C3CC3)cn2)cc1NC(=O)c1cnn2ccc(N3CC4(COC4)C3)cc12 [Example 336]
15 | 100 to 1000 | Cc1ccc(-c2noc([C@H]3C[C@@H]3F)n2)cc1NC(=O)c1cnc(-c2cccc3cc[nH]c23)o1 [Example 308-41]
16 | < 100 | Cc1ccc(-c2noc([C@H]3C[C@@H](OC(F)F)C3)n2)cc1NC(=O)c1cnn2ccc(N3CC4(C3)CC(O)(C(F)(F)F)C4)cc12 [Example 281-22]
17 | 100 to 1000 | Cc1ccc(-c2noc([C@H]3C[C@@H]3F)n2)cc1NC(=O)c1cnc(-c2ccc3c(c2)NC(=O)C3)o1 [Example 301]
18 | 100 to 1000 | COC(=O)N1C[C@H](c2nc(-c3cnc(C)c(NC(=O)c4cnn5ccc(N6CC7(C6)CC(O)(C(F)F)C7)cc45)c3)no2)[C@H]1C [Example 281-14]
19 | 100 to 1000 | Cc1ccc(-c2noc(N3CCOCC3)n2)cc1NC(=O)c1cnn2ccc(N3CC4(C3)CC(O)(C(F)F)C4)cc12 [Example 281-100]
20 | 100 to 1000 | Cc1ncc(-c2noc(C3(F)CN(CC(F)F)C3)n2)cc1NC(=O)c1cnn2ccc(N3CC4(C3)CC(O)(C(F)F)C4)cc12 [Example 281-105]
21 | 100 to 1000 | Cc1sc(-c2noc(C3CN(C(=O)C4CC4)C3)n2)cc1NC(=O)c1cnn2ccc(N3CC4(C3)CC(O)(C(F)F)C4)cc12 [Example 281-122]

Each molecule was assayed on M-07e cells (assay: M-07e cellular assay (SCF-mediated cell proliferation)). Conditions: Homo sapiens, 72 hours, CellTiter Glo.
Format: cell-based
Outline: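 Readout came from CellTiter Glo after 72 h of compound treatment in SCF (EC90)-stimulated, pre-starved M-07e cells at 37 °C.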

Row | SMILES | EC50 [nM]
22 | Cc1ccc(-c2ccc(C3CC3)cn2)cc1NC(=O)c1cnn2ccc(N3CC4(COC4)C3)cc12 [Example 336] | < 100
23 | Cc1ccc(-c2noc([C@H]3C[C@@H]3F)n2)cc1NC(=O)c1cnc2n1C(Cc1ccccc1)c1ccccc1-2 (stereo partly drawn) [Example 104] | > 1000
24 | Cc1ncc(-c2noc([C@H]3C[C@@H](OC(F)(F)F)C3)n2)cc1NC(=O)c1cnn2ccc(N3CC4(COC4)C3)cc12 [Example 270] | < 100
25 | Cc1ccc(-c2noc([C@H]3C[C@@H]3F)n2)cc1NC(=O)c1cnc(-c2cccc3cc[nH]c23)o1 [Example 308-41] | > 1000
26 | Cc1ncc(-c2noc([C@@H]3CN(CC(F)(F)F)[C@H]3C)n2)cc1NC(=O)c1cnn2ccc(N3CC4(C3)CC(O)(C(F)F)C4)cc12 [Example 281-12] | 100 to 1000
27 | Cc1ccc(-c2noc([C@H]3C[C@@H]3F)n2)cc1NC(=O)c1cnn2ccc(N3CC[C@H](N)C3)cc12 [Example 198] | 100 to 1000
28 | Cc1ccc(-c2noc([C@H]3C[C@@H](OC(F)(F)F)C3)n2)cc1NC(=O)c1cnn2cc(-c3cn(C(F)F)nn3)ccc12 [Example 263] | < 100
29 | Cc1ccc(-c2noc([C@H]3C[C@@H](OC(F)F)C3)n2)cc1NC(=O)c1cnn2ccc(N3CC4(C3)CC(O)(C(F)(F)F)C4)cc12 [Example 281-22] | < 100
30 | Cc1ccc(-c2noc([C@H]3C[C@@H]3F)n2)cc1NC(=O)c1cnc(-c2ccc3c(c2)NC(=O)C3)o1 [Example 301] | > 1000
31 | Cc1ccc(-c2noc([C@H]3C[C@@H]3F)n2)cc1NC(=O)c1cnn2ccc(N3CC4(C3)CC(F)(F)C4)cc12 [Example 213] | < 100
32 | COC(=O)N1C[C@H](c2nc(-c3cnc(C)c(NC(=O)c4cnn5ccc(N6CC7(C6)CC(O)(C(F)F)C7)cc45)c3)no2)[C@H]1C [Example 281-14] | 100 to 1000
33 | Cc1ccc(-c2noc(N3CCOCC3)n2)cc1NC(=O)c1cnn2ccc(N3CC4(C3)CC(O)(C(F)F)C4)cc12 [Example 281-100] | < 100
34 | Cc1ccc(-c2noc([C@H]3C[C@@H]3F)n2)cc1NC(=O)c1cnn2ccc(N3CCOCC3)cc12 [Example 241] | < 100
35 | Cc1ccc(-c2noc([C@H]3C[C@@H]3F)n2)cc1NC(=O)c1cnc(N2CC(C(=O)NC3CC3)C2)s1 [Example 98-5] | > 1000
36 | Cc1ccc(-c2noc([C@H]3C[C@@H]3F)n2)cc1NC(=O)c1cnn2ccc(N3CC4(CN(C)C4)C3)cc12 [Example 202] | 100 to 1000
37 | Cc1ccc(-c2noc([C@H]3C[C@@H](OC(F)F)C3)n2)cc1NC(=O)c1cnn2cc(-c3cn(C(F)F)nn3)ccc12 [Example 275] | < 100
38 | Cc1ccc(-c2noc(C34CC(F)(C3)C4)n2)cc1NC(=O)c1cnn2ccc(N3CC4(COC4)C3)cc12 [Example 249] | < 100
39 | Cc1ccc(-c2noc([C@H]3C[C@@H]3F)n2)cc1NC(=O)c1cnn2ccc(-c3ccc(C#N)nc3C)cc12 [Example 171-16] | < 100
40 | Cc1ncc(-c2noc(C3(F)CN(CC(F)F)C3)n2)cc1NC(=O)c1cnn2ccc(N3CC4(C3)CC(O)(C(F)F)C4)cc12 [Example 281-105] | 100 to 1000
41 | Cc1ccc(-c2noc([C@H]3C[C@@H]3F)n2)cc1NC(=O)c1cnn2ccc(N3C[C@H]4C[C@@H]3CO4)cc12 [Example 199] | < 100
42 | Cc1sc(-c2noc(C3CN(C(=O)C4CC4)C3)n2)cc1NC(=O)c1cnn2ccc(N3CC4(C3)CC(O)(C(F)F)C4)cc12 [Example 281-122] | > 1000
